# Key:
# [1] = molecular target: T1, Peroxisome proliferator-activated receptor gamma (Homo sapiens, UniProt P37231); assay: Binding affinity to PPARgamma
# T1 sequence (P37231 whole entry): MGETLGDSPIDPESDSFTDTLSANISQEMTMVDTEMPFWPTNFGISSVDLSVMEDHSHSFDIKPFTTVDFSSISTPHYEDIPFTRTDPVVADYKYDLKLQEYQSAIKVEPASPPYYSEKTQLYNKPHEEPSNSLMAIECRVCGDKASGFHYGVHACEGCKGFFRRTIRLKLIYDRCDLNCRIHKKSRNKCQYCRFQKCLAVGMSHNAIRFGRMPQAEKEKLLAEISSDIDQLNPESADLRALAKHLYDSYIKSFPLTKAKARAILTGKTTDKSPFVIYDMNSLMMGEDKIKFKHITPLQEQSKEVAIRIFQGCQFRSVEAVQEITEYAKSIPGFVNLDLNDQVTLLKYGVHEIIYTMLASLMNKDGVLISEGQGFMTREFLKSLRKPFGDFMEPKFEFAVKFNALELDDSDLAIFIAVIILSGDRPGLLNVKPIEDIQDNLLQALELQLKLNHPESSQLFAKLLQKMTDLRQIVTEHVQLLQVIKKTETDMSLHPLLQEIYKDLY
# Homo sapiens [2] = organism: Homo sapiens; assay: Selectivity ratio for PPRalpha over PPRgamma
# Homo sapiens [3] = organism: Homo sapiens; assay: Selectivity ratio for PPRbeta/delta over PPRgamma
# [4] = molecular target: T2, Peroxisome proliferator-activated receptor alpha (Homo sapiens, UniProt Q07869); assay: Agonist activity at PPARalpha; type: functional
# T2 sequence (Q07869 whole entry): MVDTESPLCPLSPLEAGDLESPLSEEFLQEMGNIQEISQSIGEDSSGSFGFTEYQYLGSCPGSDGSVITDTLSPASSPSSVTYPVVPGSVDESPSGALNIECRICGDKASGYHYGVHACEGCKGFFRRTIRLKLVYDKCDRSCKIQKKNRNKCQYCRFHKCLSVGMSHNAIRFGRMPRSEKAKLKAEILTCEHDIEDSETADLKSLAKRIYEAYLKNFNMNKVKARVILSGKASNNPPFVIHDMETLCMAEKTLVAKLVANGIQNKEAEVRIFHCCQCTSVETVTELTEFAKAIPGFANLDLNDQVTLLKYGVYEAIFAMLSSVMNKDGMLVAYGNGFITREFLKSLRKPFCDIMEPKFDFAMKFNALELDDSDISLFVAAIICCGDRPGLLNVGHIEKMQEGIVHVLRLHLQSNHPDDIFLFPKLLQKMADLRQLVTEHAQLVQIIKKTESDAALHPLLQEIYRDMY
# Homo sapiens [5] = organism: Homo sapiens; assay: Selectivity ratio for human PPRalpha over human PPRbeta/delta
# Homo sapiens [6] = organism: Homo sapiens; assay: Selectivity ratio for human PPRgamma over human PPRbeta/delta
# Mus musculus [7] = organism: Mus musculus; assay: Selectivity ratio for mouse PPRalpha over mouse PPRbeta/delta
# Mus musculus [8] = organism: Mus musculus; assay: Selectivity ratio for mouse PPRgamma to mouse PPRbeta/delta
compound,measurement,setting,value
CCCCC/C=C\C=C\C(O)CCCCCCCC(=O)O (stereo not drawn),Kd,[1],2 µM
COC(=O)c1ccccc1N[C@@H](Cc1ccc(OCCc2nc(-c3ccccc3)oc2C)cc1)C(=O)O,Selectivity ratio,Homo sapiens [2],> 1000
same,Selectivity ratio,Homo sapiens [3],> 1000
CCCCCC(O)/C=C\C=C/CCCCCCCC(=O)O (stereo not drawn),Kd,[1],2 µM
CN(CCOc1ccc(C[C@H](Nc2ccccc2C(=O)c2ccccc2)C(=O)O)cc1)c1ccccn1,Selectivity ratio,Homo sapiens [2],> 1000
same,Selectivity ratio,Homo sapiens [3],> 1000
CCCCC/C=C/C=C1/C(=O)C=C[C@@H]1C/C=C\CCCC(=O)O,Kd,[1],2 µM
CC/C=C\C/C=C\C/C=C\C/C=C\C/C=C\CCCC(=O)O [ICOSAPENT],Kd,[1],2 µM
CC(C)(Oc1ccc(CCOc2ccc(/C=C/C(=O)c3cc(Cl)ccc3O)cc2)cc1)C(=O)O,EC50,[4],0.06 µM
CCCc1c(OCCCOc2ccc(OCC(=O)O)cc2)ccc(C(C)=O)c1O,Selectivity ratio,Homo sapiens [5],> 100
same,Selectivity ratio,Homo sapiens [6],> 100
same,Selectivity ratio,Mus musculus [7],> 100
same,Selectivity ratio,Mus musculus [8],> 100

# Reference: ChEMBL document CHEMBL2069220, “Targeting peroxisome proliferator-activated receptors (PPARs): development of modulators” (J Med Chem, 2012)
